This note sets out measurements from patent US7550438B2, “Methods for production of growth-promoting proteins and peptides for kidney epithelial cells” (The University of Chicago, priority 1997, dated 2009).

Test [1] deals with rats with mercuric chloride-induced acute renal failure. Briefly: Mercuric chloride-induced acute renal failure in rats: survival and renal function. Type of test: in vivo, rat. To be noted: given 24 hours before mercuric chloride (EGF 20 μg, s.c.).
The test system is the same in test [2]. Described as above. Type of test: in vivo, rat. The following applies: for survival 7 days later: single dose s.c. 1 hour after mercuric chloride. The source says: Nephrotoxic and ischemic acute renal failure (ARF) induced experimentally in rats have long been used to model this syndrome in humans. […] Male rats weighed 200-225 gm at the start of the experiment. This dose was used because preliminary experiments indicated it results in survival of 25-50% of the animals 7 days later. […] An increase in serum creatinine concentration signals a decline in renal function because the injured kidney is unable to excrete endogenous creatinine in the urine so it accumulates in the blood.
The synthetic peptide […] (14-Ser) (SEQ ID NO: 15) (dissolved in sterile 0.01% bovine serum albumin in phosphate-buffered saline) was injected subcutaneously into rats to determine its effect on survival, recovery of renal fucntion, and stimulation of DNA synthesis. Multiple different peptides were studied including 14-Ser, […] (14-mer) (SEQ ID NO: 39), […] (16-mer) (SEQ ID NO: 4) […] (11-mer) (SEQ ID NO: 6), and […] (11-mer) (SEQ ID NO: 41). Different concentrations and times of administration were tested and compared.
Acute tubular necrosis was induced in 44 rats by the subcutaneous (s.c.) injection of mercuric chloride, and a single dose of 14-ser was administered s.c. 1 hour afterwards. Different amounts of the peptide were given to assesses its capacity to affect the outcome. Survival 7 days later was about twice as high in animals given 100-150 μg of peptide (63%) than in rats given 0-75 μg peptide (29%).
To determine the effect of the peptide on survival and recovery of renal function, acute tubular necrosis was induced in 59 rats; 29 received 14-Ser (100 μg/rat) and 30 received an equal volume of the vehicle s.c. 1 hour after administration of mercuric chloride. Enhanced survival (top panel) and renal functional recovery (bottom panel) of rats give a WGF-derived peptide after mercuric chloride-induced acute tubular necrosis are shown in FIG. 2A and FIG. 2B. Mercuric chloride was injected subcutaneously into each of the 59 rats, and 1 hour later 100 μg of WGF peptide (14-Ser) (n=29 rats) or the vehicle […] was given. Survival was greater in rats given the peptide than in animals receiving the vehicle as early as day 3 after administration of mercuric chloride. Blood was obtained from the tail vein on the days indicated, and serum creatinine concentration was measured. […] On days 2, 3 and 4, the lower creatinine concentration in peptide-treated rats indicates accelerated recovery of kidney function.
Experimental ARF was induced in rats by subcutaneous injection of mercuric chloride. The synthetic peptide […] […] In one experiment a total of 17 rats were injected with a dose of mercuric chloride shown to induce ARF. The different amounts of the peptide (known to stimulate growth of kidney cells in culture) were injected into the animals to assess capacity to improve the outcome. […] In contrast, two of three rats given 100 micrograms of peptide were alive, as were five of six given 200 micrograms. In summary, none of eight rats (0%) given up to 50 micrograms of peptide survived, whereas seven of nine (78%) given 100-200 micrograms did. Thus, the 11-mer WGF peptide improves survival in nephrotoxic ARF.
[…] Four days later, 63% of rats given the 14-Ser peptide were alive compared to 25% of animals receiving the vehicle (chi squared, P-0.0499); 50% of rats receiving EGF were alive (chi squared, P=N.S.). On day 5, 50% of rats given EGF were alive, compared to 12.5% of animals given the vehicle (chi squared, P=0.0436). […] These observations indicate that the 14-Ser peptide and EGF given after renal injury are similar in their ability to improve survival from the ARF syndrome.

The test system of another test is BSC-1 cells. Put plainly: Inhibition of WGF and WGF-derived peptide mitogenesis in BSC-1 cells. Type of test: cell-based, African green monkey. To be noted: TGF-β2 6 ng/ml; exogenous 14-Ser up to 5 μg/ml. From the text:
In these studies the pentamers, PQGNH (SEQ ID NO: 36) or YPQGN (SEQ ID NO: 3) were synthesized, purified by HPLC and then assayed for growth-promoting activity. […] Because the pentamers are not mitogenic, when they bind to the site, growth is not observed. After pentamers are bound to the site, the pentamers appear to prevent the hexapeptide from gaining access to the membrane.
Transforming growth factor (TGF)-β2 is an autocrine growth inhibitor secreted by BSC-1 cells that limits proliferation in culture. Exogenous TGF-β2 was added to the culture medium to determine its capacity to inhibit the growth-promoting effect of 14-Ser. TGF-β2 at a concentration of 1 ng/ml was sufficient to abolish the 25% stimulation of growth induced by 14-Ser. At a TGF-β2 concentration of 2 ng/ml, growth was inhibited by 30% in the presence or absence of 14-Ser; at 10 ng/ml, inhibition was 60%.
Because TGF-β2 inhibits proliferation induced by diverse mitogens, a more specific inhibitor was sought. […] Cells were preincubated for 30 minutes with the pentapeptide YPQGN (SEQ ID NO: 3). The culture medium was then aspirated, the monolayer was rinsed, fresh medium was added, and the number of cells counted 4 days later. Preincubation of cells with YPQGN (SEQ ID NO: 3) inhibited the mitogenic effect of the 6-amino acid peptide.

For the sequence AQPYPQGNHEASYG, the “survival on day 4” value in test [1] (listed as 14-Ser) was 71%; in test [1] (listed as 14-Ser WGF-derived peptide) it was 73%. For the same sequence, the “survival 7 days later” value in test [2] (0-75 μg peptide) was determined as 29%; in test [2] (100-150 μg of peptide) it was 63%. Besides, the “recovery of renal function on days 3 and 4” value in test [2] (100 μg/rat s.c. 1 hour after mercuric chloride) is “significantly more rapid recovery”. Further, the “serum creatinine concentration on day 2 compared to vehicle” value in test [2] (100 μg/rat s.c. 1 hour after mercuric chloride, P=0.034) is reported as “significantly lower”. Besides, in test [2] (100 μg/rat s.c. 1 hour after mercuric chloride, basal 0.5, similar with vehicle), the “serum creatinine concentration on day 1” value was 2.3 mg/dL. Also, the “survival compared to vehicle 3 days after onset of ARF” value in test [2] (100 μg/rat s.c. 1 hour after mercuric chloride, chi squared P=0.035) is “significantly greater”. Further, the “survival by day 7” value in test [2] (100 μg/rat s.c. 1 hour after mercuric chloride, vehicle 20%) was 48%. The “survival on day 6” value in test [2] (14-Ser 100 μg 1 hour after, EGF 20 μg 2 hours after mercuric chloride, vehicle 12%) was determined as 37.5%. Also, in test [2] (14-Ser 100 μg s.c. 1 hour after, EGF 20 μg s.c. 2 hours after mercuric chloride 2.25 mg/kg, vehicle 25%), the “survival four days later” value is on record as 63%. Besides, the “renal function (serum creatinine) on day 3 compared to vehicle” value in test [2] (given 24 hours before mercuric chloride, P=0.039) was “significantly better”. Moreover, the “reversal of TGF-β2 growth inhibition” value in the test on BSC-1 cells is listed as “did not reverse growth inhibition”.
